The values that follow come from publication PMC2810234, “Lyngbyastatins 8–10, Elastase Inhibitors with Cyclic Depsipeptide Scaffolds Isolated from the Marine Cyanobacterium Lyngbya semiplena” (Marine Drugs, 2009).

By IC50 is commonly meant the concentration that gives 50% inhibition. A low value points to inhibition by little substance.

In this test the target is T1, porcine pancreatic elastase (Sus scrofa, UniProt P00772).
T1 construct: purchased EPC (Elastin Products Company) EC134
T1 sequence (P00772 27-266): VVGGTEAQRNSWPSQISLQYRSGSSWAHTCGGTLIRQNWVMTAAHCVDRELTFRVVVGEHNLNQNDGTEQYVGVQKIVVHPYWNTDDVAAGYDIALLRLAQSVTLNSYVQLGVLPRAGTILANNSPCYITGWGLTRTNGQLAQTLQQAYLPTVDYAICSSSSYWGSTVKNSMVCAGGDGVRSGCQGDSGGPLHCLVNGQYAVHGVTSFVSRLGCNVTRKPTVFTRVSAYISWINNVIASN
In words: Inhibition of porcine pancreatic elastase. To be noted: elastase stock 75 μg/mL (5 μL), Tris-HCl pH 8.0; compound 1 μL in DMSO; preincubated 15 min at room temperature; substrate 2 mM N-succinyl-Ala-Ala-Ala-p-nitroanilide solution (15 μL); absorbance 405 nm every 30 s, initial slope vs uninhibited; triplicate. The class given is biochemical. As for the experimental part: A stock solution of porcine pancreatic elastase (Elastase-high purity; EPC, EC134) was prepared at a concentration of 75 μg/mL in Tris-HCl (pH 8.0). Aliquots of test compounds (1 μL, DMSO) were preincubated with 79 μL Tris-HCl (pH 8.0) and 5 μL elastase stock for 15 min at room temperature in a microtiter plate. After this time, 15 μL substrate solution was added (2 mM N-succinyl-Ala-Ala-Ala-p-nitroanilide in Tris-HCl, pH 8.0) to each well, and the reaction was followed by measuring the absorbance at 405 nm every 30 s. Enzyme activity was determined by calculating the initial slope of each progress curve, expressed as a percentage of the slope of the uninhibited reaction.
The compound `C/C=C1\NC(=O)[C@@H](NC(=O)[C@@H](NC(=O)[C@H](C)NC(C)=O)C(C)C)[C@@H](C)OC(=O)[C@H](C(C)C)NC(=O)[C@H](Cc2ccc(O)cc2)N(C)C(=O)[C@H](Cc2ccccc2)N2C(=O)[C@H](CC[C@H]2O)NC1=O` [Compound 1, Lyngbyastatin 8] returned an IC50 of 123 ± 2 nM.
`C/C=C1\NC(=O)[C@@H](NC(=O)[C@@H](NC(=O)[C@H](C)NC(=O)CCC)C(C)C)[C@@H](C)OC(=O)[C@H](C(C)C)NC(=O)[C@H](Cc2ccc(O)cc2)N(C)C(=O)[C@H](Cc2ccccc2)N2C(=O)[C@H](CC[C@H]2O)NC1=O` [Compound 2, Lyngbyastatin 9] returned a half-maximal inhibitory concentration (IC50) of 210 ± 10 nM. Compared with the last compound, the IC50 is about 1.7-fold higher.
For `C/C=C1\NC(=O)[C@@H](NC(=O)[C@@H](NC(=O)[C@H](C)NC(=O)CCC)C(C)C)[C@@H](C)OC(=O)[C@H](C(C)C)NC(=O)[C@H](Cc2ccc(O)c(Br)c2)N(C)C(=O)[C@H](Cc2ccccc2)N2C(=O)[C@H](CC[C@H]2O)NC1=O` [Compound 3, Lyngbyastatin 10] the value was 120 ± 16 nM.
